This note sets out measurements from ChEMBL document CHEMBL6109153, “Development of Membrane-Targeting Osthole Derivatives Containing Pyridinium Quaternary Ammonium Moieties with Potent Anti-Methicillin-Resistant Staphylococcus aureus Properties” (J Med Chem, 2025).

In series [1] the test system is Staphylococcus aureus. Briefly: Antibacterial activity against methicillin-resistant Staphylococcus aureus M11 infected in BALB/c mouse model of Sepsis assessed as vacuolar degeneration in liver cells at 10 to 20 mg/kg, ip measured after 48 hrs. The series is classed as functional, organism-based. As to conditions: dose 10-20 mg/kg.
Series [2] can be described thus: Toxicity in KM mouse assessed as abnormality in kidney at 30 mg/kg, sc by H and E staining based analysis. In kind it is organism-based. As to conditions: in vivo.
Series [3] can be described thus: Toxicity in KM mouse assessed as abnormality in lung at 30 mg/kg, sc by H and E staining based analysis. In kind it is organism-based. As to conditions: in vivo.
A short description of series [4]: Binding affinity to phosphatidylglycerol assessed as change in entropy by ITC analysis.
Series [5] in a line: Toxicity in BALB/c mouse model of Sepsis infected with methicillin-resistant Staphylococcus aureus M11 assessed as survival rate at 30 mg/kg, ip measured after 7 days. The series is classed as organism-based. As to conditions: in vivo, 168 h, time 7 day.
A short description of series [6]: Toxicity in BALB/c mouse assessed as obvious damage in tissues of organs at 30 mg/kg, ip measured for 7 days by H and E staining based analysis. The series is classed as organism-based. As to conditions: in vivo, 168 h, time 7 day.
Series [7] can be described thus: Toxicity in BALB/c mouse assessed as change in serum biochemical parameters at 30 mg/kg, ip measured for 7 days. The series is classed as organism-based. As to conditions: in vivo, 168 h, time 7 day.
Series [8] has as its system Staphylococcus aureus. Put plainly: Antibacterial activity against methicillin-resistant Staphylococcus aureus M11 infected in BALB/c mouse model of Sepsis assessed as vacuolar degeneration in renal epithelial cells at 20 mg/kg, ip measured after 48 hrs. In kind it is functional, organism-based.
Series [9] in a line: Toxicity in KM mouse assessed as erythema on dorsal skin at 40 mg/kg, sc. In kind it is organism-based. As to conditions: in vivo.
For series [10], the system named is Staphylococcus aureus. Put plainly: Antibacterial activity against methicillin-resistant Staphylococcus aureus M11 infected in BALB/c mouse model of Sepsis assessed as reduction in bacterial load in liver at 20 mg/kg, ip measured after 48 hrs. The series is classed as functional.
Series [11] relates to Staphylococcus aureus. Briefly: Antibacterial activity against methicillin-resistant Staphylococcus aureus M11 infected in BALB/c mouse model of Sepsis assessed as reduction in bacterial load in spleen at 10 mg/kg, ip measured after 48 hrs. The series is classed as functional.
Series [12] concerns Staphylococcus aureus. Briefly: Antibacterial activity against methicillin-resistant Staphylococcus aureus M11 infected in BALB/c mouse model of Sepsis assessed as vacuolar degeneration in renal epithelial cells at 10 mg/kg, ip measured after 48 hrs. The series is classed as functional, organism-based.
Series [13] can be described thus: Toxicity in KM mouse assessed as adverse reactions at <=30 mg/kg, sc. The series is classed as organism-based. As to conditions: in vivo.
The nature of series [14]: Binding affinity to phosphatidylglycerol assessed as change in enthalpy by ITC analysis. Background: In ITC the heat of successive injections is recorded.
Series [15] is described as follows: Toxicity in BALB/c mouse model of Sepsis infected with methicillin-resistant Staphylococcus aureus M11 assessed as survival rate at 20 mg/kg, ip measured after 7 days. In kind it is organism-based. As to conditions: in vivo, 168 h, time 7 day.
A short description of series [16]: Toxicity in BALB/c mouse model of Sepsis infected with methicillin-resistant Staphylococcus aureus M11 assessed as survival rate at 10 mg/kg, ip measured after 7 days. The series is classed as organism-based. As to conditions: in vivo, 168 h, time 7 day.
Series [17] in a line: Toxicity in KM mouse assessed as abnormality in spleen at 30 mg/kg, sc by H and E staining based analysis. The series is classed as organism-based. As to conditions: in vivo.
For series [18], the system named is Staphylococcus aureus. Put plainly: Antibacterial activity against methicillin-resistant Staphylococcus aureus M11 infected in BALB/c mouse model of Sepsis assessed as reduction in bacterial load in liver at 10 mg/kg, ip measured after 48 hrs. The series is classed as functional.
Series [19] is described as follows: Toxicity in KM mouse assessed as abnormality in heart at 30 mg/kg, sc by H and E staining based analysis. In kind it is organism-based. As to conditions: in vivo.
Series [20] is described as follows: Toxicity in KM mouse assessed as erythema on dorsal skin at <=30 mg/kg, sc. As to conditions: in vivo. In kind it is organism-based.
The test system of series [21] is Staphylococcus aureus. Briefly: Antibacterial activity against methicillin-resistant Staphylococcus aureus M11 infected in BALB/c mouse model of Sepsis assessed as reduction in bacterial load in kidney at 20 mg/kg, ip measured after 48 hrs. The series is classed as functional.
A short description of series [22]: Toxicity in KM mouse assessed as abnormality in spleen at 20 mg/kg, sc by H and E staining based analysis. As to conditions: in vivo. In kind it is organism-based.
Series [23] is described as follows: Toxicity in KM mouse assessed as abnormality in heart at 20 mg/kg, sc by H and E staining based analysis. The series is classed as organism-based. As to conditions: in vivo.
Series [24] is described as follows: Toxicity in KM mouse assessed as erythema on dorsal skin at 30 mg/kg, sc. The series is classed as organism-based. As to conditions: in vivo.
A short description of series [25]: Toxicity in KM mouse assessed as abnormality in kidney at 20 mg/kg, sc by H and E staining based analysis. In kind it is organism-based. As to conditions: in vivo.
Series [26] in a line: Toxicity in BALB/c mouse assessed as change in serum biochemical parameters at 10 mg/kg, ip measured for 7 days. In kind it is organism-based. As to conditions: in vivo, 168 h, time 7 day.
Series [27] is described as follows: Toxicity in BALB/c mouse assessed as change in blood routine parameters at 10 mg/kg, ip measured for 7 days. The series is classed as organism-based. As to conditions: in vivo, 168 h, time 7 day.
Series [28] can be described thus: Toxicity in KM mouse assessed as abnormality in liver at 20 mg/kg, sc by H and E staining based analysis. In kind it is organism-based. As to conditions: in vivo.
A short description of series [29]: Toxicity in BALB/c mouse assessed as mortality rate at 20 mg/kg, ip measured for 7 days. The series is classed as organism-based. As to conditions: in vivo, time 7 day, read-out: Activity.
The nature of series [30]: Toxicity in BALB/c mouse assessed as obvious damage in tissues of organs at 10 mg/kg, ip measured for 7 days by H and E staining based analysis. The series is classed as organism-based. As to conditions: in vivo, 168 h, time 7 day.
The nature of series [31]: Toxicity in KM mouse assessed as erythema on dorsal skin at <=20 mg/kg, sc. As to conditions: in vivo. In kind it is organism-based.
Series [32] is described as follows: Toxicity in BALB/c mouse assessed as lesions in tissues of organs at 10 mg/kg, ip measured for 7 days by H and E staining based analysis. In kind it is organism-based. As to conditions: in vivo, 168 h, time 7 day.

Structures are written as SMILES. Active and inactive are the calls of the source. The calls are words filed in the database; no cut-off is given here.

With `CC(C)=CCc1c(OCCCCSc2cc[n+](CC(=O)N(CC(C)C)CC(C)C)cc2)ccc2ccc(=O)oc12.[Br-]`, in the series with Staphylococcus aureus [1], the outcome was Active. Further, the Activity entry in [2] is recorded as “Non-toxic”; in [3], “Non-toxic”; in [6], “Non-toxic”; in series [7], “Non-toxic”; with Staphylococcus aureus [8], “Active; Improvement Was Comparable To That In Vancomycin Group”; in series [9], “Toxic”. In addition, the Activity in the series on Staphylococcus aureus [10] is 3.81 log10CFU/ml; in the series with Staphylococcus aureus [11], 1.62 log10CFU/ml; in series [13], “Non-toxic”; in series [17], “Non-toxic”; in the series with Staphylococcus aureus [18], 1.84 log10CFU/ml; in [19], “Non-toxic”. Besides, the Activity result in [20] is reported as “Non-toxic”; with Staphylococcus aureus [21], 4.24 log10CFU/ml. For the same molecule, in series [4], the deltaS amounted to 11.7 cal/mol/deg. The Survival is on record as 100% in series [5], 66.7% in [15] and 44.4% in series [16]. The result in the series with Staphylococcus aureus [12] was inactive. Moreover, in series [14], the deltaH was -2720 cal/mol.
In the case of `CCCCCNC(=O)C[n+]1ccc(SCCCCCOc2ccc3ccc(=O)oc3c2CC=C(C)C)cc1.[Br-]`, the Activity result in [22] is “Non-toxic”; in series [23], “Non-toxic”; in series [24], “Toxic”; in series [25], “Non-toxic”; in series [26], “Non-toxic”; in series [27], “Non-toxic”. The Activity result in series [28], in [30], in series [31] and in series [32] was “Non-toxic” in each case. In series [29], the mortality at 168 h stood at 83.3%.
